Measurements reported in patent publication US9718819B2 (Merck Sharp & Dohme Corp., priority 2012, dated 2017).

The compounds below were run against HIV-1 RT wild-type enzyme (Human immunodeficiency virus type 1 group M subtype B (isolate HXB2) (HIV-1), UniProt P04585) (assay: HIV-1 reverse transcriptase inhibitory activity (RT polymerase assay)). Conditions: HIV-1 RT wild-type enzyme 83 pM; RNA-dependent DNA polymerase activity; read-out: IC50.
Format: biochemical
Summary of the method: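 Biotinylated DNA primer annealed to HCV-derived RNA template (16.6 nM final hybrid), with 2 μM dATP/dGTP/dCTP and 66.6 nM Ru-dUTP, after 30 min compound–enzyme preincubation at room temperature; polymerization 90 min at 37 °C, EDTA quench. Product captured on avidin plates, electrochemiluminescence read; IC50 by four-parameter logistic fit versus DMSO and 1 μM efavirenz controls.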

Q: Which IC50 does the source give for N#Cc1cc(Cl)cc(Oc2c(C(F)(F)F)ncn(Cc3cc(C(O)C(F)(F)F)c(=O)[nH]n3)c2=O)c1 (stereo not drawn) [Example 103, 3-chloro-5-((6-oxo-1-((6-oxo-5-(2,2,2-trifluoro-1-hydroxyethyl)-1,6-dihydropyridazin-3-yl)methyl)-4-(trifluoromethyl)-1,6-dihydropyrimidin-5-yl)oxy)benzonitrile] here?
A: The IC50 was 74 nM.

Q: CC(=O)c1cc(Cn2cnc(C(F)(F)F)c(Oc3cc(Cl)cc(C#N)c3)c2=O)n[nH]c1=O [Example 105, 3-((1-((5-acetyl-6-oxo-1,6-dihydropyridazin-3-yl)methyl)-6-oxo-4-(trifluoromethyl)-1,6-dihydropyrimidin-5-yl)oxy)-5-chlorobenzonitrile] was tested. Which IC50 did it give?
A: Its IC50 is 19 nM.

Q: With COc1cc(Cn2cnc(C(F)(F)F)c(Oc3cc(Cl)cc(C#N)c3)c2=O)n[nH]c1=O [Example 106, 3-chloro-5-((1-((5-methoxy-6-oxo-1,6-dihydropyridazin-3-yl)methyl)-6-oxo-4-(trifluoromethyl)-1,6-dihydropyrimidin-5-yl)oxy)benzonitrile] as the compound, how does the IC50 read?
A: The IC50 was 12 nM.

Q: N#Cc1cc(Cl)cc(Oc2c(C(F)(F)F)ncn(Cc3cc(O)c(=O)[nH]n3)c2=O)c1 [Example 107, 3-chloro-5-((1-((5-hydroxy-6-oxo-1,6-dihydropyridazin-3-yl)methyl)-6-oxo-4-(trifluoromethyl)-1,6-dihydropyrimidin-5-yl)oxy)benzonitrile] was tested. Which IC50 did it give?
A: The IC50 was 223 nM.

Q: With N#Cc1cc(Cl)cc(Oc2c(C(F)(F)F)ncn(Cc3cc(Oc4ccc(F)cc4)c(=O)[nH]n3)c2=O)c1 [Example 108, 3-chloro-5-((1-((5-(4-fluorophenoxy)-6-oxo-1,6-dihydropyridazin-3-yl)methyl)-6-oxo-4-(trifluoromethyl)-1,6-dihydropyrimidin-5-yl)oxy)benzonitrile] as the compound, how does the IC50 read?
A: The IC50 was 316 nM.

Q: Which IC50 does the source give for N#Cc1cc(Cl)cc(Oc2c(C(F)(F)F)ncn(Cc3cc(OC(F)F)c(=O)[nH]n3)c2=O)c1 [Example 109, 3-chloro-5-((1-((5-(difluoromethoxy)-6-oxo-1,6-dihydropyridazin-3-yl)methyl)-6-oxo-4-(trifluoromethyl)-1,6-dihydropyrimidin-5-yl)oxy)benzonitrile] here?
A: The IC50 was 7 nM.

Q: Cn1cc(-c2cc(Cn3cnc(C(F)(F)F)c(Oc4cc(Cl)cc(C#N)c4)c3=O)c(=O)[nH]n2)cn1 [Example 111, 3-chloro-5-((1-((6-(1-methyl-1H-pyrazol-4-yl)-3-oxo-2,3-dihydropyridazin-4-yl)methyl)-6-oxo-4-(trifluoromethyl)-1,6-dihydropyrimidin-5-yl)oxy)benzonitrile] was tested. Which IC50 did it give?
A: The IC50 was 10 nM.

Q: How did the IC50 turn out when N#Cc1cc(Cl)cc(Oc2c(C(F)(F)F)ncn(Cc3cc(-c4ccc(F)cc4)n[nH]c3=O)c2=O)c1 [Example 112, 3-chloro-5-((1-((6-(4-fluorophenyl)-3-oxo-2,3-dihydropyridazin-4-yl)methyl)-6-oxo-4-(trifluoromethyl)-1,6-dihydropyrimidin-5-yl)oxy)benzonitrile] was run?
A: The IC50 was 5 nM.

Q: How did the IC50 turn out when N#Cc1cc(Cl)cc(Oc2c(C(F)(F)F)ncn(Cc3cc(-c4cccc(F)c4)n[nH]c3=O)c2=O)c1 [Example 113, 3-chloro-5-((1-((6-(3-fluorophenyl)-3-oxo-2,3-dihydropyridazin-4-yl)methyl)-6-oxo-4-(trifluoromethyl)-1,6-dihydropyrimidin-5-yl)oxy)benzonitrile] was run?
A: The IC50 was 6 nM.

Q: For Cn1nccc1-c1cc(Cn2cnc(C(F)(F)F)c(Oc3cc(Cl)cc(C#N)c3)c2=O)c(=O)[nH]n1 [Example 114, 3-chloro-5-((1-((6-(1-methyl-1H-pyrazol-5-yl)-3-oxo-2,3-dihydropyridazin-4-yl)methyl)-6-oxo-4-(trifluoromethyl)-1,6-dihydropyrimidin-5-yl)oxy)benzonitrile], which IC50 is on record?
A: The IC50 was 7 nM.

Q: With N#Cc1cc(Cl)cc(Oc2c(C(F)(F)F)ncn(Cc3cc(-c4ccc(OC(F)F)cc4)n[nH]c3=O)c2=O)c1 [Example 115, 3-chloro-5-((1-((6-(4-(difluoromethoxy)phenyl)-3-oxo-2,3-dihydropyridazin-4-yl)methyl)-6-oxo-4-(trifluoromethyl)-1,6-dihydropyrimidin-5-yl)oxy)benzonitrile] as the compound, how does the IC50 read?
A: The IC50 was 7 nM.

Q: With N#Cc1cc(Cl)cc(Oc2c(C(F)(F)F)ncn(Cc3cc(-c4ccc(OC(F)(F)F)cc4)n[nH]c3=O)c2=O)c1 [Example 116, 3-chloro-5-((6-oxo-1-((3-oxo-6-(4-(trifluoromethoxy)phenyl)-2,3-dihydropyridazin-4-yl)methyl)-4-(trifluoromethyl)-1,6-dihydropyrimidin-5-yl)oxy)benzonitrile] as the compound, how does the IC50 read?
A: The IC50 was 21 nM.

Q: Which IC50 does the source give for N#Cc1cc(Cl)cc(Oc2c(C(F)(F)F)ncn(Cc3cc(-c4ccc(C(F)(F)F)cc4)n[nH]c3=O)c2=O)c1 [Example 119, 3-chloro-5-((6-oxo-1-((3-oxo-6-(4-(trifluoromethyl)phenyl)-2,3-dihydropyridazin-4-yl)methyl)-4-(trifluoromethyl)-1,6-dihydropyrimidin-5-yl)oxy)benzonitrile] here?
A: Its IC50 is 12 nM.

Q: With N#Cc1cc(Cl)cc(Oc2c(C(F)(F)F)ncn(Cc3cc(-c4cccc(F)c4F)n[nH]c3=O)c2=O)c1 [Example 120, 3-chloro-5-((1-((6-(2,3-difluorophenyl)-3-oxo-2,3-dihydropyridazin-4-yl)methyl)-6-oxo-4-(trifluoromethyl)-1,6-dihydropyrimidin-5-yl)oxy)benzonitrile] as the compound, how does the IC50 read?
A: The IC50 was 3 nM.

Q: With N#Cc1cc(Cl)cc(Oc2c(C(F)(F)F)ncn(Cc3cc(-c4ccc(F)c(F)c4)n[nH]c3=O)c2=O)c1 [Example 121, 3-chloro-5-((1-((6-(3,4-difluorophenyl)-3-oxo-2,3-dihydropyridazin-4-yl)methyl)-6-oxo-4-(trifluoromethyl)-1,6-dihydropyrimidin-5-yl)oxy)benzonitrile] as the compound, how does the IC50 read?
A: Its IC50 is 5 nM.

Q: With N#Cc1cc(Cl)cc(Oc2c(C(F)(F)F)ncn(Cc3cc(-c4ccc(C#N)c(F)c4)n[nH]c3=O)c2=O)c1 [Example 122, 4-(5-((5-(3-chloro-5-cyanophenoxy)-6-oxo-4-(trifluoromethyl)pyrimidin-1(6H)-yl)methyl)-6-oxo-1,6-dihydropyridazin-3-yl)-2-fluorobenzonitrile] as the compound, how does the IC50 read?
A: Its IC50 is 6 nM.

Q: Which IC50 does the source give for N#Cc1cc(Cl)cc(Oc2c(C(F)(F)F)ncn(Cc3cc(-c4ccc(Cl)c(F)c4)n[nH]c3=O)c2=O)c1 [Example 123, 3-chloro-5-((1-((6-(4-chloro-3-fluorophenyl)-3-oxo-2,3-dihydropyridazin-4-yl)methyl)-6-oxo-4-(trifluoromethyl)-1,6-dihydropyrimidin-5-yl)oxy)benzonitrile] here?
A: Its IC50 is 6 nM.

Q: Which IC50 does the source give for N#Cc1cc(Cl)cc(Oc2c(C(F)(F)F)ncn(Cc3cc(-c4cccnc4)n[nH]c3=O)c2=O)c1 [Example 124, 3-chloro-5-((6-oxo-1-((3-oxo-6-(pyridin-3-yl)-2,3-dihydropyridazin-4-yl)methyl)-4-(trifluoromethyl)-1,6-dihydropyrimidin-5-yl)oxy)benzonitrile] here?
A: Its IC50 is 6 nM.

Q: Which IC50 does the source give for N#Cc1cc(Cl)cc(Oc2c(C(F)(F)F)ncn(Cc3cc(-c4ccc(C(O)C(F)F)cc4)n[nH]c3=O)c2=O)c1 (stereo not drawn) [Example 125, 3-chloro-5-((1-((6-(4-(2,2-difluoro-1-hydroxyethyl)phenyl)-3-oxo-2,3-dihydropyridazin-4-yl)methyl)-6-oxo-4-(trifluoromethyl)-1,6-dihydropyrimidin-5-yl)oxy)benzonitrile] here?
A: The IC50 was 8 nM.

Q: Which IC50 does the source give for N#Cc1cc(Cl)cc(Oc2c(C(F)(F)F)ncn(Cc3cc(-c4ccnc5[nH]ccc45)n[nH]c3=O)c2=O)c1 [Example 126, 3-chloro-5-((6-oxo-1-((3-oxo-6-(1H-pyrrolo[2,3-b]pyridin-4-yl)-2,3-dihydropyridazin-4-yl)methyl)-4-(trifluoromethyl)-1,6-dihydropyrimidin-5-yl)oxy)benzonitrile] here?
A: The IC50 was 4 nM.

Q: Which IC50 does the source give for N#Cc1cc(Cl)cc(Oc2c(C(F)(F)F)ncn(Cc3cnc(C(F)(F)F)[nH]c3=O)c2=O)c1 [Example 131, 3-Chloro-5-[16-oxo-1-(6-oxo-2-trifluoromethyl-1,6-dihydro-pyrimidin-5-ylmethyl)-4-trifluoromethyl-1,6-dihydro-pyrimidin-5-yloxy]-benzonitrile] here?
A: The IC50 was 435 nM.

Q: With CSc1ncc(Cn2cnc(C(F)(F)F)c(Oc3cc(Cl)cc(C#N)c3)c2=O)c(=O)[nH]1 [Example 132, 3-chloro-5-((1-((2-(methylthio)-6-oxo-1,6-dihydropyrimidin-5-yl)methyl)-6-oxo-4-(trifluoromethyl)-1,6-dihydropyrimidin-5-yl)oxy)benzonitrile] as the compound, how does the IC50 read?
A: Its IC50 is 12 nM.

Q: For Cc1ncc(Cn2cnc(C(F)(F)F)c(Oc3cc(Cl)cc(C#N)c3)c2=O)c(=O)[nH]1 [Example 133, 3-chloro-5-((1-((2-methyl-6-oxo-1,6-dihydropyrimidin-5-yl)methyl)-6-oxo-4-(trifluoromethyl)-1,6-dihydropyrimidin-5-yl)oxy)benzonitrile], which IC50 is on record?
A: The IC50 was 8 nM.

Q: For N#Cc1cc(Cl)cc(Oc2c(C3CC3)ncn(Cc3ccc(=O)[nH]n3)c2=O)c1 [Example 134, 3-chloro-5-((4-cyclopropyl-6-oxo-1-((6-oxo-1,6-dihydropyridazin-3-yl)methyl)-1,6-dihydropyrimidin-5-yl)oxy)benzonitrile], which IC50 is on record?
A: The IC50 was 17 nM.

Q: N#Cc1cc(Cl)cc(Oc2c(C(F)(F)F)ncn(Cc3cnc(O)[nH]c3=O)c2=O)c1 [Example 135, 3-chloro-5-((1-((2-hydroxy-6-oxo-1,6-dihydropyrimidin-5-yl)methyl)-6-oxo-4-(trifluoromethyl)-1,6-dihydropyrimidin-5-yl)oxy)benzonitrile] was tested. Which IC50 did it give?
A: The IC50 was 8 nM.

Q: Which IC50 does the source give for N#Cc1cc(Cl)cc(Oc2c(C(F)(F)F)ncn(Cc3cnc[nH]c3=O)c2=O)c1 [Example 136, 3-chloro-5-((6-oxo-1-((6-oxo-1,6-dihydropyrimidin-5-yl)methyl)-4-(trifluoromethyl)-1,6-dihydropyrimidin-5-yl)oxy)benzonitrile] here?
A: Its IC50 is 6 nM.

Q: How did the IC50 turn out when CNc1ncc(Cn2cnc(C(F)(F)F)c(Oc3cc(Cl)cc(C#N)c3)c2=O)c(=O)[nH]1 [Example 137, 3-chloro-5-((1-((2-(methylamino)-6-oxo-1,6-dihydropyrimidin-5-yl)methyl)-6-oxo-4-(trifluoromethyl)-1,6-dihydropyrimidin-5-yl)oxy)benzonitrile] was run?
A: The IC50 was 9 nM.
